Results reported in US5508039A (priority 1994, dated 1996).

Tests used:
[1] = tested on: desynchronized blind persons; conditions: oral; cited from earlier work
[2] = cited from earlier work
mice = conditions: cited from earlier work
breast cancer = conditions: cited from earlier work
insomniacs = conditions: oral; cited from earlier work
[3] = general statement; cited from earlier work
clinical = type: in vivo, human
Protocol: (§1) Therapeutic blood levels from 20 pg/ml to 1,000 pg/ml can be obtained from administration rates in the range of […]. […] Therapeutic blood levels can be achieved within approximately 2 hours, and peak blood concentrations are achieved at about 4-6 hours when the system is worn for 4-6 hours. […] The system application is easily adapted for shorter or longer duration treatments, but generally 6 hours is the nominal duration for treatment of most insomnias.

[4] = type: in vivo, human
Protocol: as §1

[5] = tested on: intraocular pressure in glaucoma; conditions: cited from earlier work
[6] = human, in vivo; cited from earlier work
[7] = human, in vivo, topical or ocular

COc1ccc2[nH]cc(CCNC(C)=O)c2c1 [melatonin, N-acetyl-5-methoxytryptamine]
timing of sleep cycles [1]: Improved timing of sleep cycles | absorption through the gastrointestinal tract ([2]; in vivo, po): readily absorbed | inactivation by liver of absorbed melatonin on first-pass ([2]; oral): ≤ 99% | LD50 intraperitoneal (mice; intraperitoneal): 1375 mg/kg | LD50 intravenous (mice; intravenous): 180 mg/kg | inhibition of breast cancer (breast cancer): inhibit breast cancer | mood, drive, alertness, and reaction time the next day (insomniacs): improved | time awake before sleep onset, sleep latency and number of awakenings (insomniacs): reduced the time awake before sleep onset and diminished sleep latency and number of awakenings | toxicity [3]: relatively non-toxic | desired and achievable system flux through the skin from a limited area (clinical): 0,025-1.0 | Tmax (clinical; [7]): 4 to 6 h | half-life (clinical; [7]): 1 to 2 h | time to achieve therapeutic blood levels (clinical; in vivo): ≤ 2 h | skin flux through living human skin [4]: 0.05-10 mg/cm^2 /hr | intraocular pressure [5]: lower intraocular pressure in glaucoma | metabolic clearance [6]: approximately 1 liter per minute | terminal plasma elimination half-life [6]: approximately 45 minutes | volume of distribution [6]: approximately 40 liters
